Test results from patent US8173658B2 (priority 2005, dated 2012).
Where a name gives a salt, the structure may show the parent alone.

What was measured:
[1] = biological target: α7-subtype of nicotinic receptors (Rattus norvegicus, UniProt Q05941); assay: biochemical; assay type: binding
α7-subtype of nicotinic receptors, sequence (Q05941 23-502): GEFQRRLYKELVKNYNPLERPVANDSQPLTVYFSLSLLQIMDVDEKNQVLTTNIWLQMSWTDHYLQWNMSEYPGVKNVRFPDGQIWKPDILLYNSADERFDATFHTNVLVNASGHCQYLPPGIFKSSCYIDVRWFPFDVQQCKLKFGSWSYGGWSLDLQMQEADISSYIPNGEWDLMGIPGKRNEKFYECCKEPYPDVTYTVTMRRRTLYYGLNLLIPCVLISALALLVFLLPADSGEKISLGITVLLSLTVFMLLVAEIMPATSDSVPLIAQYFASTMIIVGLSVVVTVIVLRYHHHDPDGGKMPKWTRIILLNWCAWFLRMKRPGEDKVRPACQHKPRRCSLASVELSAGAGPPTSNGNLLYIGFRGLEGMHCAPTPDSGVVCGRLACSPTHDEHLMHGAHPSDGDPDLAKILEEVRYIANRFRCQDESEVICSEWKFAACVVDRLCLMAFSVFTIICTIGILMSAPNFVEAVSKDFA

Row | Compound | melting point [°C] | IC50 [1] [nM]
1 | CN1C2CCCC1CN(c1ccc(-c3ccccc3)nn1)C2 (as salt: fumaric acid salt) [Compound A1, 9-Methyl-3-(6-phenyl-pyridazin-3-yl)-3,9-diaza-bicyclo[3.3.1]nonane] | 187 to 188 | 
2 | CN1C2CCCC1CN(c1ccc(-c3ccccc3)nn1)C2 [Compound A1, 9-Methyl-3-(6-phenyl-pyridazin-3-yl)-3,9-diaza-bicyclo[3.3.1]nonane] |  | < 1000
3 | CN1C2CCCC1CN(c1ccc(-c3ccsc3)nn1)C2 [Compound C1] |  | < 1000
4 | CCN1C2CCCC1CN(c1ccc(-c3ccccc3)nn1)C2 [Compound D1, 9-Ethyl-3-(6-phenyl-pyridazin-3-yl)-3,9-diaza-bicyclo[3.3.1]nonane] |  | < 1000
